Results taken from the supplement of paper PMC10307832.

How the values were obtained:
Test in all cases: relative viability (nuclei count vs DMSO), 5 days (fraction); higher = more cells survive
Dactolisib + Pemetrexed = compound: Cn1c(=O)n(-c2ccc(C(C)(C)C#N)cc2)c2c3cc(-c4cnc5ccccc5c4)ccc3ncc21 [Dactolisib] + Nc1nc2[nH]cc(CCc3ccc(C(=O)N[C@@H](CCC(=O)O)C(=O)O)cc3)c2c(=O)[nH]1 [Pemetrexed] (partner 0.2 µM)
Outline: (§1)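 The day after seeding in 1536-well plates, lung cancer cell lines were treated by pin tool with a single drug, or with a fixed anchor-drug dose together with five library-drug doses (not always all listed) in √10 steps. After 5 days, a combined fix-and-stain solution (final 0.05% Triton X-100, 1% formaldehyde, 1 ug/ml Hoechst) was added. Nuclei counted on 4× images gave relative viability as treated counts over vehicle counts, reported as the median of duplicate plates.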

Dactolisib + OSI-027 = compound: Cn1c(=O)n(-c2ccc(C(C)(C)C#N)cc2)c2c3cc(-c4cnc5ccccc5c4)ccc3ncc21 [Dactolisib] + COc1cccc2cc(-c3nc([C@H]4CC[C@H](C(=O)O)CC4)n4ncnc(N)c34)[nH]c12 [OSI-027] (partner 0.5 µM)
Outline: as §1

Dactolisib + Lapatinib = compound: Cn1c(=O)n(-c2ccc(C(C)(C)C#N)cc2)c2c3cc(-c4cnc5ccccc5c4)ccc3ncc21 [Dactolisib] + CS(=O)(=O)CCNCc1ccc(-c2ccc3ncnc(Nc4ccc(OCc5cccc(F)c5)c(Cl)c4)c3c2)o1 [Lapatinib] (partner 2 µM)
Outline: as §1

AZ505 + Foretinib = compound: C1CCC(CC1)N(CCNCCC2=C3C(=C(C=C2)O)NC(=O)CO3)C(=O)CCNCCC4=CC(=C(C=C4)Cl)Cl [AZ505] + COc1cc2c(Oc3ccc(NC(=O)C4(C(=O)Nc5ccc(F)cc5)CC4)cc3F)ccnc2cc1OCCCN1CCOCC1 [Foretinib] (partner 0.25 µM)
Outline: as §1

Row | Cell Line | relative viability (Dactolisib + Pemetrexed; first compound 0.002 µM) | relative viability (Dactolisib + Pemetrexed; first compound 0.006325 µM) | relative viability (Dactolisib + Pemetrexed; first compound 0.02 µM) | relative viability (Dactolisib + Pemetrexed; first compound 0.06325 µM) | relative viability (Dactolisib + Pemetrexed; first compound 0.2 µM) | relative viability (Dactolisib + OSI-027; first compound 0.002 µM) | relative viability (Dactolisib + OSI-027; first compound 0.006325 µM) | relative viability (Dactolisib + OSI-027; first compound 0.02 µM) | relative viability (Dactolisib + OSI-027; first compound 0.06325 µM) | relative viability (Dactolisib + OSI-027; first compound 0.2 µM) | relative viability (Dactolisib + Lapatinib; first compound 0.002 µM) | relative viability (Dactolisib + Lapatinib; first compound 0.006325 µM) | relative viability (Dactolisib + Lapatinib; first compound 0.02 µM) | relative viability (Dactolisib + Lapatinib; first compound 0.06325 µM) | relative viability (Dactolisib + Lapatinib; first compound 0.2 µM) | relative viability (AZ505 + Foretinib; first compound 0.08 µM) | relative viability (AZ505 + Foretinib; first compound 0.253 µM) | relative viability (AZ505 + Foretinib; first compound 0.8 µM) | relative viability (AZ505 + Foretinib; first compound 2.53 µM) | relative viability (AZ505 + Foretinib; first compound 8 µM)
1 | 201T | 0.329 | 0.295 | 0.292 | 0.272 | 0.247 | 0.715 | 0.749 | 0.682 | 0.747 | 0.509 | 1.07 | 1.05 | 0.991 | 0.956 | 0.969 | 1.01 | 1.14 | 1.07 | 1.06 | 1.19
2 | A549 | – | – | – | – | – | – | – | – | – | – | 1.07 | 0.769 | 0.674 | 0.224 | 0.145 | 0.895 | 1.06 | 0.812 | 1.03 | 1.06
3 | A-427 | 1.09 | 1.03 | 0.968 | 0.8 | 0.644 | 0.59 | 0.461 | 0.47 | 0.375 | 0.419 | 1.06 | 1.04 | 0.928 | 0.883 | 0.776 | 1.05 | 1.04 | 0.997 | 1.1 | 1.13
4 | ABC-1 | – | – | – | – | – | 0.494 | 0.519 | 0.569 | 0.43 | 0.349 | 1.18 | 1.04 | 0.982 | 0.808 | 0.707 | 0.856 | 1.21 | 0.976 | 1.02 | 0.863
5 | BEN | 0.714 | 0.757 | 0.603 | 0.639 | 0.434 | 0.302 | 0.33 | 0.302 | 0.32 | 0.315 | 0.882 | 0.624 | 0.657 | 0.408 | 0.274 | 0.612 | 0.644 | 0.693 | 0.675 | 0.833
6 | CAL-12T | 1.23 | 1.17 | 1.17 | 0.412 | 0.325 | 0.894 | 0.635 | 0.521 | 0.318 | 0.239 | 0.792 | 0.567 | 0.537 | 0.366 | 0.258 | 1.03 | 1.11 | 1.18 | 1.22 | 1.36
7 | COR-L23 | 0.194 | 0.198 | 0.195 | 0.197 | 0.183 | 0.917 | 0.796 | 0.59 | 0.289 | 0.259 | 1.39 | 0.864 | 0.765 | 0.299 | 0.295 | 0.878 | 0.928 | 0.909 | 0.863 | 0.975
